{
  "source": "patent US20150164867A1",
  "about": "“METHODS OF IMPROVING LONG-TERM SURVIVAL AND REDUCING HOSPITALIZATION READMISSION RATES FOR SUBJECTS SUFFERING FROM HEPATIC ENCEPHALOPATHY” (Salix Pharmaceuticals, Ltd, priority 2012, published 2015)",
  "key": {"[1]": {"tested_on": "patients admitted for overt HE", "experiment": "Chart review of survival outcomes in patients admitted for overt HE", "assay_type": "in vivo, human", "details": "for Survival Rates, One Year / Survival Rates, Six Months / Survival Rates, Three Years: overt HE patients; for Survival Rates, One Year: one year after discharge; for Survival Rates, Six Months: six months after discharge, RFX 1200 then 1100 mg/day, LAC 30-120 cc/day; for Survival Rates, Three Years: three years after discharge", "excerpt": "The medical charts of outpatient and hospitalized patients admitted for overt HE were examined over a 137-month (about an 11.5-year) window. Information collected included gender, age, ethnicity, post discharge HE management protocol, HE hospitalization number (frequency) and time (days) to transplant or death. […] The lactulose dose (LAC) was 30-120 cc/day, adjusted to acquire two to three loose to soft bowel movements. Time from discharge to death or transplant was reported.\nIn the study, 185 patients were identified, 106 of which were males, 79 or which were females. The median age was 48.5 years (range: 28-72 years). The ethnic group breakdown was as follows: 66% Caucasian, 12% African American, 18% Hispanic, 4% Other. The mean MELD score was 18.5 points (range: 12-40)."}, "[2]": {"tested_on": "patients admitted for overt HE", "experiment": "Chart review of hospital readmission in cirrhotic patients with overt HE", "assay_type": "in vivo, human", "excerpt": "The medical charts of outpatient and hospitalized patients admitted for overt HE were examined over a 137-month (about an 11.5-year) window. Information collected included gender, age, ethnicity, MELD score, post discharge HE management protocol, HE hospitalization number (frequency), time to readmission (days) and health insurance coverage. All patients suffering from infection, renal failure, gastrointestinal bleeding or […] were excluded. Group one consisted of patients discharged with lactulose (LAC) treatment. Group two consisted of patients discharged on rifaximin (RFX) treatment. Group three consisted of patients discharged on rifaximin treatment combined with lactulose treatment (RFX/LAC). […] The lactulose dose (LAC) was 30-120 cc/day, adjusted to acquire two to three loose to soft bowel movements. Time from discharge to readmission was measured. All patients were required to have a follow up visit after discharge and maintain family support and employment. Patients were broken down into compliant and non-compliant groups with outpatient follow-up. Eighty-seven (87) patients were identified as compliant, while forty-nine (49) patients were identified as non-compliant. In the compliant group, there were 51 males and 36 females, with an age range of between 32 and 68 years. The ethnic group breakdown for the compliant group was as follows: 66% Caucasian, 14% African American, 17% Hispanic and 3% other. The mean MELD score of the compliant group was 12.5 points (range: 8-17). In the non-compliant group, there were 29 males and 20 females, with an age range of between 28 and 66 years. The ethnic group breakdown for the non-compliant group was as follows: 64% Caucasian, 18% African American and 18% Hispanic. The mean MELD score of the non-compliant group was 11.5 points (range: 6-18)."}, "[3]": {"tested_on": "compensated cirrhotic patients with SHE", "experiment": "Chart review of daily caloric intake in compensated cirrhotic patients with subclinical hepatic encephalopathy", "assay_type": "in vivo, human", "excerpt": "The medical charts were reviewed for non-hospitalized patients with compensated cirrhosis with and without the diagnosis of subclinical hepatic encephalopathy. […] All patients were reported to be at baseline Conn score Grade 0-1 HE, and employment status was identified. Information collected included; gender, age, ethnicity, weight/height, exercise and employment status, and daily calorie counts for 14 days. Daily caloric intake was registered with food consumption logs by patients and family. Normal caloric intake was considered at 1600 to 2200 calories/day depending upon dietary requirements. The daily caloric totals were conducted with the Calorie Smart calculator. […] There were 64 patients involved in the study: 29 females, 35 males, age (range 19-68), ethnicity (81% Caucasian, 8% African American, 8% Hispanic, 3% other), and mean MELD 8.5 points (range 6-13). There were no events of occult HE or hospitalizations throughout the review."}, "[4]": {"tested_on": "species of Staphylococcus, Streptococcus, Enterococcus, and Enterobacteriaceae", "details": "in vitro data; cited from earlier work"}, "[5]": {"details": "relative to lactulose monotherapy or combined therapy"}},
  "data": [
    {"compound": "OC[C@H]1O[C@@H](O[C@@H]2[C@@H](CO)OC(O)(CO)[C@H]2O)[C@H](O)[C@@H](O)[C@H]1O", "note": "(mixture of isomers) [LAC, Lactulose]", "values": [
      {"measurement": "Survival Rates, One Year", "setting": "[1]", "result": 46, "unit": "%"},
      {"measurement": "Survival Rates, Six Months", "setting": "[1]", "result": 60, "unit": "%"},
      {"measurement": "Survival Rates, Three Years", "setting": "[1]", "result": 29, "unit": "%"},
      {"measurement": "number of hospital readmissions", "setting": "[2]; compliant and non-compliant populations, comparison of LAC, RFX, RFX/LAC groups", "result": "highest"},
      {"measurement": "adverse effect", "setting": "[3]", "result": "bowel bloating culminating in a sensation of decreased appetite"},
      {"measurement": "caloric intake (in words)", "setting": "[3]", "result": "marked decrease"}
    ]},
    {"compound": "CO[C@H]1/C=C/O[C@@]2(C)Oc3c(C)c(O)c4c(O)c(c5c(nc6cc(C)ccn65)c4c3C2=O)NC(=O)/C(C)=C\\C=C\\[C@H](C)[C@H](O)[C@@H](C)[C@@H](O)[C@@H](C)[C@H](OC(C)=O)[C@@H]1C", "note": "[RFX, Rifaximin]", "values": [
      {"measurement": "short- and long-term survival", "setting": "[1]; addition of rifaximin, alone or in combination with lactulose, overt HE", "result": "improvement"},
      {"measurement": "Survival Rates, One Year", "setting": "[1]", "result": 63, "unit": "%"},
      {"measurement": "Survival Rates, Six Months", "setting": "[1]", "result": 76, "unit": "%"},
      {"measurement": "Survival Rates, Three Years", "setting": "[1]", "result": 51, "unit": "%"},
      {"measurement": "frequency of hospitalizations", "setting": "[2]; [5]", "result": "less frequent"},
      {"measurement": "time to hospital readmission", "setting": "[2]; [5]", "result": "greater"},
      {"measurement": "caloric intake (in words)", "setting": "[3]", "result": "appeared to maintain daily caloric intake"},
      {"measurement": "in vitro antibacterial activity", "setting": "[4]", "result": "active"}
    ]}
  ]
}
